Where a SMILES comes first, the peptide text is derived from it. [ ]: non-standard residue; d: D form. Cha = N[C@@H](CC1CCCCC1)C(=O)O; Chg = N[C@H](C(=O)O)C1CCCCC1; Tle = CC(C)(C)[C@H](N)C(=O)O; dDab = NCC[C@@H](N)C(=O)O; Orn = NCCC[C@H](N)C(=O)O; Dab = NCC[C@H](N)C(=O)O
test system: human red blood cells (hRBC); format: cell-based; settings: red cells of human, 1 h
Description: The peptides were tested for their hemolytic activity against human red blood cells (hRBC). Fresh hRBC were washed three times with phosphate buffered saline (PBS) and centrifuged for 10 min at 2000×g. Compounds (100 μg/ml) were incubated with 20% hRBC (v/v) for 1 h at 37° C. and shaking at 300 rpm. The final erythrocyte concentration was approximately 0.9×10^9 cells/ml. A value of 0% and 100% cell lyses, respectively, was determined by incubation of hRBC in the presence of PBS containing 0.001% acetic acid and 2.5% Triton X-100 in H2O, respectively. The samples were centrifuged, the supernatants were 8-fold diluted in PBS buffer and the optical densities (OD) were measured at 540 nm. The 100% lyses value (OD540H2O) gave an OD540 of approximately 0.5-1.0. Percent hemolysis was calculated as follows: (OD540peptide/OD540H2O)×100%.

Compound | Hemolysis at 100 μg/ml [%]
CC(C)C[C@@H]1NC(=O)[C@@H]2CCCN2C(=O)[C@H]2CCCN2C(=O)[C@H](CO)NC(=O)[C@H](CO)NC(=O)[C@H](CC2CCCCC2)NC(=O)[C@H](CCN)NC(=O)[C@H](Cc2c[nH]c3ccccc23)NC(=O)[C@H](CCN)NC(=O)[C@@H](CCN)NC(=O)[C@H](CCCCN)NC(=O)[C@H](CCN)NC(=O)[C@H](Cc2ccc(O)cc2)NC(=O)[C@H](Cc2c[nH]c3ccccc23)NC1=O [compound 31, cyclo(-Leu-Trp-Tyr-Dab-Lys-^DDab-Dab-Trp-Dab-Cha-Ser-Ser-^DPro-Pro-)] (cyclo(LWY[Dab]K[dDab][Dab]W[Dab][Cha]SS[dP]P)) | 1
CC(C)C[C@@H]1NC(=O)[C@@H]2CCCN2C(=O)[C@H]2CCCN2C(=O)[C@H](CO)NC(=O)[C@H](CO)NC(=O)[C@H](CC2CCCCC2)NC(=O)[C@H](CCN)NC(=O)[C@H](Cc2c[nH]c3ccccc23)NC(=O)[C@H](CCN)NC(=O)[C@@H](CCN)NC(=O)[C@H](CCCN)NC(=O)[C@H](CCN)NC(=O)[C@H](Cc2ccc(O)cc2)NC(=O)[C@H](Cc2c[nH]c3ccccc23)NC1=O [compound 32, cyclo(-Leu-Trp-Tyr-Dab-Orn-^DDab-Dab-Trp-Dab-Cha-Ser-Ser-^DPro-Pro-)] (cyclo(LWY[Dab][Orn][dDab][Dab]W[Dab][Cha]SS[dP]P)) | 3
CC(C)C[C@@H]1NC(=O)[C@@H]2CCCN2C(=O)[C@H]2CCCN2C(=O)[C@H](CO)NC(=O)[C@H](CC(N)=O)NC(=O)[C@H](C(C)(C)C)NC(=O)[C@H](CCN)NC(=O)[C@H](Cc2c[nH]c3ccccc23)NC(=O)[C@H](CCN)NC(=O)[C@@H](CCN)NC(=O)[C@H](CCCN)NC(=O)[C@H](CCN)NC(=O)[C@H](Cc2ccc(O)cc2)NC(=O)[C@H](Cc2ccc(O)cc2)NC1=O [compound 33, cyclo(-Leu-Tyr-Tyr-Dab-Orn-^DDab-Dab-Trp-Dab-tBuGly-Asn-Ser-^DPro-Pro-)] (cyclo(LYY[Dab][Orn][dDab][Dab]W[Dab][Tle]NS[dP]P)) | 5
CC(C)C[C@@H]1NC(=O)[C@@H]2CCCN2C(=O)[C@H]2CCCN2C(=O)[C@H](CO)NC(=O)[C@H](C)NC(=O)[C@H](C2CCCCC2)NC(=O)[C@H](CCN)NC(=O)[C@H](Cc2c[nH]c3ccccc23)NC(=O)[C@H](CCN)NC(=O)[C@@H](CCN)NC(=O)[C@H](CCCN)NC(=O)[C@H](CCN)NC(=O)[C@H](C(C)(C)C)NC(=O)[C@H](Cc2c[nH]c3ccccc23)NC1=O [compound 34, cyclo(-Leu-Trp-tBuGly-Dab-Orn-^DDab-Dab-Trp-Dab-Chg-Ala-Ser-^DPro-Pro-)] (cyclo(LW[Tle][Dab][Orn][dDab][Dab]W[Dab][Chg]AS[dP]P)) | 1
CC[C@H](C)[C@@H]1NC(=O)[C@@H]2CCCN2C(=O)[C@H]2CCCN2C(=O)[C@H](CO)NC(=O)[C@H](C)NC(=O)[C@H](CC2CCCCC2)NC(=O)[C@H](CCN)NC(=O)[C@H](Cc2c[nH]c3ccccc23)NC(=O)[C@H](CCN)NC(=O)[C@@H](CCN)NC(=O)[C@H](CCCCN)NC(=O)[C@H](CCN)NC(=O)[C@H](C(C)(C)C)NC(=O)[C@H](Cc2c[nH]c3ccccc23)NC1=O [compound 35, cyclo(-Ile-Trp-tBuGly-Dab-Lys-^DDab-Dab-Trp-Dab-Cha-Ala-Ser-^DPro-Pro-)] (cyclo(IW[Tle][Dab]K[dDab][Dab]W[Dab][Cha]AS[dP]P)) | 1
CC(C)C[C@@H]1NC(=O)[C@@H]2CCCN2C(=O)[C@H]2CCCN2C(=O)[C@H](CO)NC(=O)[C@H](CO)NC(=O)[C@H](C2CCCCC2)NC(=O)[C@H](CCN)NC(=O)[C@H](Cc2c[nH]c3ccccc23)NC(=O)[C@H](CCN)NC(=O)[C@@H](CCN)NC(=O)[C@H](CCCN)NC(=O)[C@H](CCN)NC(=O)[C@H](C(C)(C)C)NC(=O)[C@H](Cc2c[nH]c3ccccc23)NC1=O [compound 36, cyclo(-Leu-Trp-tBuGly-Dab-Orn-^DDab-Dab-Trp-Dab-Chg-Ser-Ser-^DPro-Pro-)] (cyclo(LW[Tle][Dab][Orn][dDab][Dab]W[Dab][Chg]SS[dP]P)) | 1
CC(C)C[C@@H]1NC(=O)[C@@H]2CCCN2C(=O)[C@H]2CCCN2C(=O)[C@H](CO)NC(=O)[C@H](CO)NC(=O)[C@H](C(C)(C)C)NC(=O)[C@H](CCN)NC(=O)[C@H](Cc2c[nH]c3ccccc23)NC(=O)[C@H](CCN)NC(=O)[C@@H](CCN)NC(=O)[C@H](CCCN)NC(=O)[C@H](CCN)NC(=O)[C@H](CC2CCCCC2)NC(=O)[C@H](Cc2c[nH]c3ccccc23)NC1=O [compound 37, cyclo(-Leu-Trp-Cha-Dab-Orn-^DDab-Dab-Trp-Dab-tBuGly-Ser-Ser-^DPro-Pro-)] (cyclo(LW[Cha][Dab][Orn][dDab][Dab]W[Dab][Tle]SS[dP]P)) | 1
CC(C)C[C@@H]1NC(=O)[C@@H]2CCCN2C(=O)[C@H]2CCCN2C(=O)[C@H](CO)NC(=O)[C@H](Cc2ccc(O)cc2)NC(=O)[C@H](C(C)(C)C)NC(=O)[C@H](CCN)NC(=O)[C@H](Cc2c[nH]c3ccccc23)NC(=O)[C@H](CCN)NC(=O)[C@@H](CCN)NC(=O)[C@H](CCCN)NC(=O)[C@H](CCN)NC(=O)[C@H](Cc2ccc(O)cc2)NC(=O)[C@H](Cc2ccc(O)cc2)NC1=O [compound 38, cyclo(-Leu-Tyr-Tyr-Dab-Orn-^DDab-Dab-Trp-Dab-tBuGly-Tyr-Ser-^DPro-Pro-)] (cyclo(LYY[Dab][Orn][dDab][Dab]W[Dab][Tle]YS[dP]P)) | 0
